From patent US8501683B2, “Cycloundecadepsipeptide compounds and use of said compounds as a medicament” (priority 2008, dated 2013)
pEC50, pIC50: −log10 of the molar value. Square brackets hold non-standard residues; d marks the D form. Peptide text beside a SMILES is read from it. MeBmt = C/C=C/C[C@@H](C)[C@@H](O)[C@H](NC)C(=O)O; NMeI = CC[C@H](C)[C@H](NC)C(=O)O; NEtVal = CCN[C@H](C(=O)O)C(C)C; NMeL = CN[C@@H](CC(C)C)C(=O)O; NMeV = CN[C@H](C(=O)O)C(C)C; dHiv = CC(C)[C@@H](O)C(=O)O; dNMeA = CN[C@H](C)C(=O)O; Abu = CC[C@H](N)C(=O)O; Sar = CNCC(=O)O

How the values were obtained:
[1] = tested on: hepatitis C virus genotype 1b Con1 replicon; test: HCV replicon assay, replicon RNA by RT-qPCR in Huh 9-13 cells; assay type: cell-based; conditions: 50% inhibition of HCV replicon replication, 3 dose-response curves
Experimental: For the evaluation of antiviral effects, assay medium was aspirated and the plates with dry monolayer were stored at −80° C. awaiting extraction. Following thawing of the plates at room temperature, the cell monolayer was lysed with 100 μl of cell-to-cDNA lysis buffer (Invitrogen). Lysis of the cells was allowed to proceed for 10 min at room temperature after which all liquid was transferred to a PCR plate (Axygen). The PCR plate was incubated for 15 min at 75° C. […] The lysate was diluted 1:2 with RNase/DNase-free water, after which 5 μl was transferred to the real-time PCR plate (Applied Biosystems).
Replicon RNA content was quantified using a real-time quantitative one-step RT-PCR method (RT-qPCR): Low Rox One-Step RT-qPCR master mix, Abgene). […] The fluorogenic probe was 5′-[sequence]-3′. The analysis of the samples were performed using a SDS7500F (Applied Biosystems, standard thermocycling profile: 30 min at 48° C., 10 min at 95° C., 40 cycles of 15 sec at 95° C. and 1 min at 60° C.) after which replicon RNA quantities were converted to percentage of untreated controls.

[2] = Cytostatic/cytotoxic effect, MTT (MTS) assay in Huh 9-13 cells; assay type: cell-based; conditions: metabolic activity reduced to 50% of untreated cells
Description: Assays used Huh 9-13 containing the hepatitis C virus genotype 1b Con1 replicon (Lohmann et al. 2001. J. Virol. 75:1437-1449; and Lohmann et al. 1999. Science. 285:110-113). Cells were sub-cultured in cell growth medium DMEM supplemented with 10% FCS, 1% non-essential amino acids, 1% penicillin/streptomycin and 2% Geneticin (Invitrogen) at a ratio of 1:4-1:5 and grown for 3-4 days in 75 cm^2 tissue culture flasks (Techno Plastic Products), were harvested and seeded in assay medium (DMEM, 10% FCS, 1% non-essential amino acids, 1% penicillin/streptomycin) at a density of 5 000 cells/well (100 μl/well) in 96-well tissue culture microtiter plates (Falcon, Beckton Dickinson) for evaluation of cytostatic/cytotoxic and antiviral effect. The microtiter plates were incubated overnight (37° C., 5% CO2, 95-99% relative humidity), yielding a non-confluent cell monolayer.
Cell density and cytostatic effects were estimated in parallel cultures in regular 96-well plates (Beckton-Dickinson) using the MTT assay (CellTiter 96 AQueous Non-Radioactive Cell Proliferation Assay, Promega). In this assay, 3-(4,5-dimethyl-thiazol-2-yl)-5-(3-carboxymethoxy-phenyl)-2-(4-sulfophenyl)-2H-tetrazolium (MTS) is bioreduced to a formazan that is quantified at 498 nm in a plate reader. Formazan production is directly correlated with number of life cells. Absorbance was measured at a wavelength of 498 nm (Safire^2, Tecan) and optical densities (OD values) were converted to percentage of untreated controls.
The compounds were dissolved in DMSO at a concentration of 4 mmole/L. Stock solutions were immediately used to set up the experiments. The compounds were tested at 24 different concentrations ranging from 0.0001 μmole/L to 100 μmole/L. The highest concentration of DMSO in the assay was determined to be 2.5% (at 100 μM final concentration of the compound). During the assay setup, the DMSO percentage decreased concomitantly with decrease in concentration of the compound.
The EC50 (value derived from the dose-response curve) represents the concentration at which 50% inhibition of viral replication is observed. The CC50 (value derived from the dose-response curve) represents the concentration at which the metabolic activity of the cells is reduced to 50% of the metabolic activity of untreated cells.
Results from these experiments permitted calculation of EC50±SD (standard deviation or Std. Dev.), which is the effective concentration required to inhibit HCV replicon replication by 50%, and of CC50±SD (whenever possible), which is the concentration required that inhibits the proliferation of exponentially growing cells by 50%. EC50 and CC50±SD values were calculated respectively as the median of all the EC50, or CC50 values derived from the 3 individual dose-response curves. The selectivity index (SI), indicative of the therapeutic window of the compound was calculated as the ratio between CC50 and EC50.

[3] = tested on: Concanavalin-A-induced T-cell proliferation; test: Concanavalin-A-induced T-cell proliferation assay (immunosuppression); assay type: cell-based; conditions: inhibition of Concanavalin-A-induced T-cell proliferation
Experimental: To determine whether the cycloundecadepsipepide compounds of the present invention have a non-immunosuppression activity, experiments were carried out that compared the dose-dependent inhibition of Concanavalin-A-induced T-cell proliferation (see Table 2).
The method of the assays were performed as described by Dayton et al. (1992. Mol. Pharmacol. 41. 671-676) and Mishell et al. (1980. Cell proliferation in selected methods in cellular immunology, V, XXIX, W.H. Freeman Co., San Francisco, Calif. 153-160).

[4] = target: bile salt export pump (BSEP) (Homo sapiens, UniProt O95342); conditions: for BSEP fold Debio 025: IC50 ratio compared to Debio 025
bile salt export pump (BSEP), sequence (O95342 whole entry): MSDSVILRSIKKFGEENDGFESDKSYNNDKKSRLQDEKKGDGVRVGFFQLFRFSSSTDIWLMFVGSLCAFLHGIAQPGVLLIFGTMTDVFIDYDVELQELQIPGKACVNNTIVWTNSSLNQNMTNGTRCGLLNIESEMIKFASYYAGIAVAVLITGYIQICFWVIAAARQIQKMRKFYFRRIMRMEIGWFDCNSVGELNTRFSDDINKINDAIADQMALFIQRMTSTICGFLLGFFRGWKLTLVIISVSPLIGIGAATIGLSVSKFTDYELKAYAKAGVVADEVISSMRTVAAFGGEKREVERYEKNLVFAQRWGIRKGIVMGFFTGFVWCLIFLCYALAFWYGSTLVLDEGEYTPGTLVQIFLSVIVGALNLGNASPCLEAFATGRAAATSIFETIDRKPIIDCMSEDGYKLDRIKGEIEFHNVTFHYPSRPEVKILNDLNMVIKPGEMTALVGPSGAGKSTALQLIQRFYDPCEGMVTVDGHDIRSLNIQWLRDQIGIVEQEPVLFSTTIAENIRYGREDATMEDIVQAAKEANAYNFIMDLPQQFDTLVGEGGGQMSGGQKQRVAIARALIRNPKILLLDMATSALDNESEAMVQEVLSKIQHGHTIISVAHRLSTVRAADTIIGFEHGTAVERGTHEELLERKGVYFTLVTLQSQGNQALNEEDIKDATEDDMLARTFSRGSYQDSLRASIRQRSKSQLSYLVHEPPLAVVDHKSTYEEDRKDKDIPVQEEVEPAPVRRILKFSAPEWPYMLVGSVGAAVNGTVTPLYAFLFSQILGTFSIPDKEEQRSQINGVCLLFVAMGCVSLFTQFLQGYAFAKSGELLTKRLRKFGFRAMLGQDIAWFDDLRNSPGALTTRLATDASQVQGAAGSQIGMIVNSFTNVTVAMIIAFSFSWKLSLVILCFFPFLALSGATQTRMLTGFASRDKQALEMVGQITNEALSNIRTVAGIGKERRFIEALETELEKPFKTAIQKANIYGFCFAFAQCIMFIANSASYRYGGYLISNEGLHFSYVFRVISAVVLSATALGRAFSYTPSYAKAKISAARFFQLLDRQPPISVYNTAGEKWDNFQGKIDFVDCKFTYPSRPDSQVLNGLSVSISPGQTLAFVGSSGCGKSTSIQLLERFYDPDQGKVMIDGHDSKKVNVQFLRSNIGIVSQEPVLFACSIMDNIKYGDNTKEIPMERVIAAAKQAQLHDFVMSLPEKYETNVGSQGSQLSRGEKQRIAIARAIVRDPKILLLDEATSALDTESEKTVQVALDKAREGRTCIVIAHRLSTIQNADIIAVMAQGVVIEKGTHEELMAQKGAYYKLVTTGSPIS
Experimental: (§1) To determine whether the cycloundecadepsipeptide compounds of the present invention interact with hepatic transporters, experiments were carried out that compared the concentration-dependent inhibition towards the multidrug resistance associated protein 2 (MRP2), the organic anion transporting polypeptide 1B1 (OATP1B1), the bile salt export pump (BSEP) and the sodium-taurocholate cotransporting polypeptide (NTCP). These transporters are involved in the hepatobiliary circulation of endogenous compounds such as bile salts or bilirubin (for a review, see C. Pauli-Magnus et al, J. Hepatology, 2005, 43:342-357). Some of them also contribute to the elimination of xenobiotics.
(§2) MRP2 and BSEP were expressed by SOLVO Biotechnology in Spodoptera frugiperda (Sf9) ovarian cells, by infecting the insect cells with a recombinant baculovirus. The inhibition of the transport of the radioactive probe substrates (estradiol-17-beta-glucuronide and taurocholate for MRP2 and BSEP, respectively) into inside-out membrane vesicles, containing the transporter, was measured by scintillation counting.
(§3) The IC50 (defined as the concentration required for inhibiting the transport of the probe substrate by 50%, half maximal inhibitory concentration) of the compounds was derived from the concentration-response curve and compared to the IC50 of Debio 025 (IC50 ratio expressed as “fold Debio 025” in the tables).

[5] = target: multidrug resistance associated protein 2 (MRP2) (Homo sapiens, UniProt Q92887); conditions: for MRP2 fold Debio 025: IC50 ratio compared to Debio 025
multidrug resistance associated protein 2 (MRP2), sequence (Q92887 whole entry): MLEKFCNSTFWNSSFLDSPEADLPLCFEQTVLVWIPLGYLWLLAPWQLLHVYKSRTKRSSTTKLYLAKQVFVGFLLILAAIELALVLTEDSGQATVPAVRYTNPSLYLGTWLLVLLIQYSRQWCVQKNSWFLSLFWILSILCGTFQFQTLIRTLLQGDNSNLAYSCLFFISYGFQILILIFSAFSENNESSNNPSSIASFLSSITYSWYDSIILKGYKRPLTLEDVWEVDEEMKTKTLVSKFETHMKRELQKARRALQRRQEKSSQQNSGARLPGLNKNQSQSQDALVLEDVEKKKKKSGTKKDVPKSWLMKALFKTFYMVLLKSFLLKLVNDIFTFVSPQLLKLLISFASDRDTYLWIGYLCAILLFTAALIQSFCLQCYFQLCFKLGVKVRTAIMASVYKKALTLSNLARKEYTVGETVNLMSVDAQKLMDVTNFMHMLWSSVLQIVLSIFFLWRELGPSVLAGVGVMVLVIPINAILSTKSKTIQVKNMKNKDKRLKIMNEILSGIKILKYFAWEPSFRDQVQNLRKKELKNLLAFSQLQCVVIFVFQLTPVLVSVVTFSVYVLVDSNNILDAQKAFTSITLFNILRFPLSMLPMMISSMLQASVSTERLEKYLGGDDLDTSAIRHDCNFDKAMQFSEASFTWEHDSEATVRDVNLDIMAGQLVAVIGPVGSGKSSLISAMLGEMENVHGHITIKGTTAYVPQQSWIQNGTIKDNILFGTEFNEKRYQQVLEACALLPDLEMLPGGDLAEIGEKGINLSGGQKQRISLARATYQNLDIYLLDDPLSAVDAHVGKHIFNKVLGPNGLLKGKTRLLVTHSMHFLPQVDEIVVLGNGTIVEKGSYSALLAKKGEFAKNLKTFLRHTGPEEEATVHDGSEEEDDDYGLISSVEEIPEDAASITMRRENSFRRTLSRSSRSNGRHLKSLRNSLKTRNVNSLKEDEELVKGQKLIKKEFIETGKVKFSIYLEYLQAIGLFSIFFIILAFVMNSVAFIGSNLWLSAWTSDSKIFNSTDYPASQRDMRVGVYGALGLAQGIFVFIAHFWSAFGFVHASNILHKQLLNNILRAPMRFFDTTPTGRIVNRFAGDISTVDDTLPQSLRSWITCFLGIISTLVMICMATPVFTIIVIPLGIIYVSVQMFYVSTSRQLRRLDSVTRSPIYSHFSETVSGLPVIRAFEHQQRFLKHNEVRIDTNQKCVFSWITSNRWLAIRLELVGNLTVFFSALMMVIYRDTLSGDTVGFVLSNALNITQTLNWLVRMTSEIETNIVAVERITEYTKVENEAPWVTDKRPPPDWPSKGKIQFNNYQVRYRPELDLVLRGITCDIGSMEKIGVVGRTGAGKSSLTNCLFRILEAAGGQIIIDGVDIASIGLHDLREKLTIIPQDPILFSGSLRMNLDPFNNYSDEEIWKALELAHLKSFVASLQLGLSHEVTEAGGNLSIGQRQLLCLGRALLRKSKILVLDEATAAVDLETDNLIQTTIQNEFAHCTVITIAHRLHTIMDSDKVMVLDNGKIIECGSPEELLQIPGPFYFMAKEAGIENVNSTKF
Experimental: as §1, §2, §3

[6] = target: organic anion transporting polypeptide 1B1 (OATP1B1) (Homo sapiens, UniProt Q9Y6L6)
organic anion transporting polypeptide 1B1 (OATP1B1), sequence (Q9Y6L6 whole entry): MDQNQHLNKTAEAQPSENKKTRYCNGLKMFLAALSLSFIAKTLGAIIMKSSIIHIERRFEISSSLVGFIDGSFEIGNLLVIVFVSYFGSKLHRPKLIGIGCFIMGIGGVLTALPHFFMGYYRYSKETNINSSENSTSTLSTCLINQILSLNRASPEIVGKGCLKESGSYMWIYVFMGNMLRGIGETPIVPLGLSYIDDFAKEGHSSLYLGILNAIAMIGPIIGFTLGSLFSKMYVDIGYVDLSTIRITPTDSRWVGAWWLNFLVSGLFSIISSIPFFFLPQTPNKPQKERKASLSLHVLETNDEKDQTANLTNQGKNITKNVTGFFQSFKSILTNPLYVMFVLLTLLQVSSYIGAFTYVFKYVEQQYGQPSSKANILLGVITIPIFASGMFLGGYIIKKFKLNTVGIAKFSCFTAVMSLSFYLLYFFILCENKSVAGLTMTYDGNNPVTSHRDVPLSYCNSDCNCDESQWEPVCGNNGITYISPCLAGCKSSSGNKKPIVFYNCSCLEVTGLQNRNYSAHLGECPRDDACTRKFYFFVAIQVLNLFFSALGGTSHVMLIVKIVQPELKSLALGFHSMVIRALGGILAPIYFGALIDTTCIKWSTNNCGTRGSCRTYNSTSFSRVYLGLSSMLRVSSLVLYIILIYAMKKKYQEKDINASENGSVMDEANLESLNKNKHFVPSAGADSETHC
Experimental: as §1
OATP1B1 and NTCP assays were performed with Chinese hamster ovary (CHO) cells expressing these human uptake transporters. The amount of the transported probe substrate (estrone-3-sulfate and taurocholate for OATP1B1 and NTCP, respectively) was determined by liquid scintillation or fluorescent photometry after cell lysis.
as §3

[7] = target: T1, sodium-taurocholate cotransporting polypeptide (NTCP) (Homo sapiens, UniProt Q14973); test: NTCP inhibition, taurocholate uptake in CHO cells; assay type: in vitro ADME; conditions: for NTCP fold Debio 025: IC50 ratio compared to Debio 025
T1 sequence (Q14973 1-349): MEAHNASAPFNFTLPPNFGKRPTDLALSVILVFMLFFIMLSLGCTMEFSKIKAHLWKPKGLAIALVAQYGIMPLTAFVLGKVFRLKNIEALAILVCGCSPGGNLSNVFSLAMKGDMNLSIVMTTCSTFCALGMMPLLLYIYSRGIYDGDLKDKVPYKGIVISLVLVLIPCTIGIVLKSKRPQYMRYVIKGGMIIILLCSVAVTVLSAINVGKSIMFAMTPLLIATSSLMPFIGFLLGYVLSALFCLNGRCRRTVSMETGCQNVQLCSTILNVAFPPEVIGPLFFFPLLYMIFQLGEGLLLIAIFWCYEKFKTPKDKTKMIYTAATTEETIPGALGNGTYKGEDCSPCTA

[8] = human, Huh 9-13 cells containing the HCV genotype 1b Con1 replicon

## C/C=C/C[C@@H](C)[C@@H](O)[C@H]1C(=O)N[C@@H](CC)C(=O)N(C)[C@H](C)C(=O)N(C)[C@@H](C(C)C)C(=O)N[C@@H](CC(C)C)C(=O)N(C)[C@@H](CC(C)C)C(=O)NCC(=O)O[C@H](C(C)C)C(=O)N(C)[C@@H](CC(C)C)C(=O)N[C@@H](CC(C)C)C(=O)N(C)[C@@H](C(C)C)C(=O)N1C [(Ia), cyclo-(MeBmt-Abu-D-MeAla-MeVal-Leu-MeLeu-Gly-D-Hiv-MeLeu-Leu-MeVal)] (cyclo([Abu][dNMeA][NMeV]L[NMeL]G[dHiv][NMeL]L[NMeV][MeBmt]))
[1]
  pEC50: 7.47
[2]; [8]
  CC50: 60100 nM
[3]
  pIC50: 5.70
[4]
  pIC50: 6.40
  BSEP fold Debio 025: 0.60
[5]
  MRP2 IC50: n.i.
[6]
  pIC50: 4.74
  OATP1B fold Debio 025: 0.02
[7]; probe taurocholate, CHO cells
  NTCP IC50: n.i.

## C/C=C/C[C@@H](C)[C@@H](O)[C@H]1C(=O)N[C@@H](CC)C(=O)N(C)[C@H](C)C(=O)N(CC)[C@@H](C(C)C)C(=O)N[C@@H](CC(C)C)C(=O)N(C)[C@@H](CC(C)C)C(=O)N[C@@H](C)C(=O)O[C@H](C(C)C)C(=O)N(C)[C@@H](CC(C)C)C(=O)N[C@@H](CC(C)C)C(=O)N(C)[C@@H](C(C)C)C(=O)N1C [(Ib), cyclo-(MeBmt-Abu-D-MeAla-EtVal-Leu-MeLeu-Ala-D-Hiv-MeLeu-Leu-MeVal)] (cyclo(A[dHiv][NMeL]L[NMeV][MeBmt][Abu][dNMeA][NEtVal]L[NMeL]))
[1]
  pEC50: 7.43
[2]; [8]
  CC50: 52300 nM
[3]
  pIC50: 5.03
[4]
  pIC50: 6.82
  BSEP fold Debio 025: 1.6
[5]
  MRP2 IC50: n.i.
[6]
  pIC50: 5.21
  OATP1B fold Debio 025: 0.07
[7]
  NTCP fold Debio 025: 0.05
[7]; probe taurocholate, CHO cells
  pIC50: 4.19

## C/C=C/C[C@@H](C)[C@@H](O)[C@H]1C(=O)N[C@@H](C(C)C)C(=O)N(C)[C@H](C)C(=O)N(C)[C@@H](C(C)C)C(=O)N[C@@H]([C@@H](C)CC)C(=O)N(C)[C@@H](CC(C)C)C(=O)NCC(=O)O[C@H](C(C)C)C(=O)N(C)[C@@H](CC(C)C)C(=O)N[C@@H](CC(C)C)C(=O)N(C)[C@@H](C(C)C)C(=O)N1C [(Ic), cyclo-(MeBmt-Val-D-MeAla-MeVal-Ile-MeLeu-Gly-D-Hiv-MeLeu-Leu-MeVal)] (cyclo(G[dHiv][NMeL]L[NMeV][MeBmt]V[dNMeA][NMeV]I[NMeL]))
[1]
  pEC50: 7.66
[2]; [8]
  CC50: 86900 nM
[3]
  pIC50: 6.01
[4]
  pIC50: 6.80
  BSEP fold Debio 025: 1.5
[5]
  pIC50: 5.66
  MRP2 fold Debio 025: 6.6
[6]
  pIC50: 5.64
  OATP1B fold Debio 025: 0.18
[7]
  NTCP fold Debio 025: 0.11
[7]; probe taurocholate, CHO cells
  pIC50: 4.52

## C/C=C/C[C@@H](C)[C@@H](O)[C@H]1C(=O)N[C@@H](CC)C(=O)N(C)[C@H](C)C(=O)N(C)[C@@H](C(C)C)C(=O)N[C@@H]([C@@H](C)CC)C(=O)N(C)[C@@H](CC(C)C)C(=O)NCC(=O)O[C@H](C(C)C)C(=O)N(C)[C@@H](CC(C)C)C(=O)N[C@@H](CC(C)C)C(=O)N(C)[C@@H](C(C)C)C(=O)N1C [(Ig), cyclo-(MeBmt-Abu-D-MeAla-MeVal-Ile-MeLeu-Gly-D-Hiv-MeLeu-Leu-MeVal)] (cyclo([Abu][dNMeA][NMeV]I[NMeL]G[dHiv][NMeL]L[NMeV][MeBmt]))
[2]
  CC50: 67000 nM

## C/C=C/C[C@@H](C)[C@@H](O)[C@H]1C(=O)N[C@@H](CC)C(=O)N(C)[C@H](C)C(=O)N(C)[C@@H]([C@@H](C)CC)C(=O)N[C@@H](CC(C)C)C(=O)N(C)[C@@H](CC(C)C)C(=O)NCC(=O)O[C@H](C(C)C)C(=O)N(C)[C@@H](CC(C)C)C(=O)N[C@@H](CC(C)C)C(=O)N(C)[C@@H](C(C)C)C(=O)N1C [(Ii), cyclo-(MeBmt-Abu-D-MeAla-MeIle-Leu-MeLeu-Gly-D-Hiv-MeLeu-Leu-MeVal)] (cyclo([Abu][dNMeA][NMeI]L[NMeL]G[dHiv][NMeL]L[NMeV][MeBmt]))
[2]
  CC50: 25400 nM

## C/C=C/C[C@@H](C)[C@@H](O)[C@H]1C(=O)N[C@@H](C(C)C)C(=O)N(C)[C@H](C)C(=O)N(C)[C@@H](C(C)C)C(=O)N[C@@H](C(C)C)C(=O)N(C)CC(=O)NCC(=O)O[C@H](C(C)C)C(=O)N(C)[C@@H](CC(C)C)C(=O)N[C@@H](CC(C)C)C(=O)N(C)[C@@H](C(C)C)C(=O)N1C [(Ik), cyclo-(MeBmt-Val-D-MeAla-MeVal-Val-Sar-Gly-D-Hiv-MeLeu-Leu-MeVal)] (cyclo(G[dHiv][NMeL]L[NMeV][MeBmt]V[dNMeA][NMeV]V[Sar]))
[2]
  CC50: 9800 nM

## C/C=C/C[C@@H](C)[C@@H](O)[C@H]1C(=O)N[C@@H](CC)C(=O)N(C)[C@H](C)C(=O)N(CC)[C@@H](C(C)C)C(=O)N[C@@H](C(C)C)C(=O)N(C)[C@@H](CC(C)C)C(=O)N[C@@H](C)C(=O)N[C@H](C)C(=O)N(C)[C@@H](CC(C)C)C(=O)N(C)[C@@H](CC(C)C)C(=O)N(C)[C@@H](C(C)C)C(=O)N1C [Debio 025, [D-MeAla]^3-[EtVal]^4-CsA, reference compound]
[1]
  pEC50: 7.47
[2]; [8]
  CC50: 2500 nM
[4]
  pIC50: 6.62
  BSEP fold Debio 025: 1
[5]
  pIC50: 4.82
  MRP2 fold Debio 025: 1
[6]
  pIC50: 6.38
  OATP1B fold Debio 025: 1
[7]
  NTCP fold Debio 025: 1
[7]; probe taurocholate, CHO cells
  pIC50: 5.49

## Cyclosporin A [Cyclosporin A (CsA), reference compound]
[3]
  pIC50: 8.22
